This note sets out measurements from ChEMBL document CHEMBL5055624, “Structural Determinants for the Mode of Action of Imidazopyridine DS2 at δ-Containing γ-Aminobutyric Acid Type A Receptors” (J Med Chem, 2021).

As usually defined, the EC50 is the midpoint of the concentration-response curve.

Molecules are shown by their SMILES.

Gamma-aminobutyric acid receptor subunit alpha-4/beta-1/delta, sequence (P48169 whole entry): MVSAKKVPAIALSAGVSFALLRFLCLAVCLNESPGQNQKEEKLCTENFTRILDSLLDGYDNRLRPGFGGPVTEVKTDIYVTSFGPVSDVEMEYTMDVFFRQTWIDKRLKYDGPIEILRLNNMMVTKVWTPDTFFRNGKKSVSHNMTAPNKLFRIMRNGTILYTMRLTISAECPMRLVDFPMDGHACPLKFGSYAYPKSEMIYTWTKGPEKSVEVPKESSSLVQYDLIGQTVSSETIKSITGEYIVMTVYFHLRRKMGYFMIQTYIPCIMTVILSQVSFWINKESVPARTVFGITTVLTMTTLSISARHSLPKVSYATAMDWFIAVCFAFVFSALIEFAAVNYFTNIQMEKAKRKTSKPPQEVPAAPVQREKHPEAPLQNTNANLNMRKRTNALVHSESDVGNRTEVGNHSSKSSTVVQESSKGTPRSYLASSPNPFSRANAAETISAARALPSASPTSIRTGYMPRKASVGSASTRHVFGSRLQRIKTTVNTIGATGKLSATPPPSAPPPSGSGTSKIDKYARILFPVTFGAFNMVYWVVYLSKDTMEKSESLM
Gamma-aminobutyric acid receptor subunit alpha-4/beta-1/delta, sequence (O14764 whole entry): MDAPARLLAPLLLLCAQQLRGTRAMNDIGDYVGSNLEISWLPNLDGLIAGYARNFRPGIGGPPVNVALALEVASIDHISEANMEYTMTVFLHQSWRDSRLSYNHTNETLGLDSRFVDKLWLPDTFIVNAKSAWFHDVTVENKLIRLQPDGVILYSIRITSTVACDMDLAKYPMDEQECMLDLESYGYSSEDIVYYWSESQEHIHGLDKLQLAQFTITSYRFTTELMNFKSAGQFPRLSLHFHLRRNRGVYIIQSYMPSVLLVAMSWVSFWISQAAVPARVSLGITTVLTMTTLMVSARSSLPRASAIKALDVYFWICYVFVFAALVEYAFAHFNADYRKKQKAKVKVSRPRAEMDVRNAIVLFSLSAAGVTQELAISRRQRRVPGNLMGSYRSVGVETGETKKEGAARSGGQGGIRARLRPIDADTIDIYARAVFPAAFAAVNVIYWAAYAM
Gamma-aminobutyric acid receptor subunit alpha-4/beta-1/delta, sequence (P18505 whole entry): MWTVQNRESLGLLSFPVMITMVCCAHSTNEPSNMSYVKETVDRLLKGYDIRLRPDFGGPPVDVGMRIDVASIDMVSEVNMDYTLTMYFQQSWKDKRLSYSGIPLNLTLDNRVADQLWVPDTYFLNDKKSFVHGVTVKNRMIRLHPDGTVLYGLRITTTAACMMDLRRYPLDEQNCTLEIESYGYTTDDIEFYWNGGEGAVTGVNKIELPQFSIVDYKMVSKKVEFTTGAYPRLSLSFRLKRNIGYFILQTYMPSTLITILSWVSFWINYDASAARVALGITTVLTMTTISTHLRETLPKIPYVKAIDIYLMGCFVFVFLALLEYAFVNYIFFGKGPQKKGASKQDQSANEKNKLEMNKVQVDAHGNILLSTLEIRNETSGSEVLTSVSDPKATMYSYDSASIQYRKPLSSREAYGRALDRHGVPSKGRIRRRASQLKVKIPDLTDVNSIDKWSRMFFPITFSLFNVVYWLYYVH

The test system of one data set is GABAA receptor alpha4beta1delta (Homo sapiens). In words: Positive allosteric modulation of human recombinant alpha4beta1delta GABAA receptor expressed in HEK293 cells assessed as GABA-induced response in presence of GABA EC20 by FMP assay.
In the case of `O=C(Nc1c(-c2cccs2)nc2ccc(F)cn12)c1ccc(Cl)cc1`, the EC50 was 1910 nM.
Take `Cc1ccc2nc(-c3cccs3)c(NC(=O)c3ccc(Cl)cc3)n2c1`: the EC50 was 162 nM.
On to `O=C(Nc1c(-c2cccs2)nc2ccccn12)c1ccc(Cl)cc1`, for which the EC50 was 977 nM.
With `O=C(Nc1c(-c2cccs2)nc2ccc(C(F)(F)F)cn12)c1ccc(Cl)cc1`, the EC50 was 1100 nM.
In the case of `O=C(Nc1c(-c2cccs2)nc2ccc(Cl)cn12)c1ccc(Cl)cc1`, the EC50 is 145 nM.
In the case of `O=C(Nc1c(-c2cccs2)nc2ccc(Br)cn12)c1ccc(Cl)cc1`, the EC50 was 60.3 nM.

Another data set has as its target Gamma-aminobutyric acid receptor subunit alpha-4/beta-1/delta (Homo sapiens, UniProt O14764+P18505+P48169). Nature of the data set: Positive allosteric modulation of human recombinant alpha4beta1delta GABAA receptor expressed in delta-HEK cells assessed as potentiation of GABA-induced response in presence of GABA EC20 by FMP assay. It is filed as cell-based, HEK293.
Turning to `O=C(Nc1c(-c2cccs2)nc2ccc(F)cn12)c1ccc(Cl)cc1`, the EC50 amounted to 1920 nM.
As to `Cc1ccc2nc(-c3cccs3)c(NC(=O)c3ccc(Cl)cc3)n2c1`, the 50% effective concentration (EC50) was 160 nM.
On the same count and under the same terms, next, `O=C(Nc1c(-c2cccs2)nc2ccccn12)c1ccc(Cl)cc1`: 980 nM.
Regarding `O=C(Nc1c(-c2cccs2)nc2ccc(C(F)(F)F)cn12)c1ccc(Cl)cc1`, the EC50 was determined as 1100 nM.
Same read-out and setting: next, `O=C(Nc1c(-c2cccs2)nc2ccc(Cl)cn12)c1ccc(Cl)cc1`: 140 nM; `O=C(Nc1c(-c2cccs2)nc2ccc(Br)cn12)c1ccc(Cl)cc1`: 60 nM.

System in a further data set: not listed separately
In words: Solubility of compound. The data set is classed as physicochemical.
Consider `Clc1ccc(-c2noc(-c3c(-c4ccccc4)nc4ccccn34)n2)cc1`, for which the solubility result was “Insoluble”.
